{"source": "ChEMBL document CHEMBL5360661", "about": "“Structure-Activity Relationship Study of 1H-Pyrrole-3-carbonitrile Derivatives as STING Receptor Agonists” (ACS Med Chem Lett, 2023)", "key": {"[1]": {"molecular_target": "T1, Stimulator of interferon genes protein (Homo sapiens, UniProt Q86WV6)", "test": "Activation of cGAS-STING pathway in human THP1-Dual KO-cGAS cells assessed as induction of IRF3 phosphorylation at Ser396 residue at 15 uM incubated for 1 hrs by Western blot analysis", "format": "cell-based", "details": "filed as activator"}, "[2]": {"molecular_target": "T1, Stimulator of interferon genes protein", "test": "Activation of cGAS-STING pathway in human THP1-Dual KO-STING cells assessed as induction of p65 phosphorylation at Ser536 residue at 15 uM incubated for 1 hrs by Western blot analysis", "format": "cell-based"}, "[3]": {"molecular_target": "T1, Stimulator of interferon genes protein", "test": "Activation of cGAS-STING pathway in human THP1-Dual KO-STING cells assessed as induction of IRF3 phosphorylation at Ser396 residue at 15 uM incubated for 1 hrs by Western blot analysis", "format": "cell-based"}, "[4]": {"molecular_target": "T1, Stimulator of interferon genes protein", "test": "Activation of cGAS-STING pathway in human THP1-Dual KO-STING cells assessed as induction of STAT3 phosphorylation at Tyr705 residue at 15 uM incubated for 1 hrs by Western blot analysis", "format": "cell-based"}, "[5]": {"molecular_target": "T1, Stimulator of interferon genes protein", "test": "Activation of cGAS-STING pathway in wildtype human THP1-Blue ISG cells assessed as induction of TBK1 phosphorylation at Ser172 residue at 15 uM incubated upto 6 hrs by Western blot analysis", "format": "cell-based", "details": "filed as activator"}, "[6]": {"molecular_target": "T2, Stimulator of interferon genes protein (Mus musculus) (UniProt Q3TBT3)", "T2 sequence (whole entry)": "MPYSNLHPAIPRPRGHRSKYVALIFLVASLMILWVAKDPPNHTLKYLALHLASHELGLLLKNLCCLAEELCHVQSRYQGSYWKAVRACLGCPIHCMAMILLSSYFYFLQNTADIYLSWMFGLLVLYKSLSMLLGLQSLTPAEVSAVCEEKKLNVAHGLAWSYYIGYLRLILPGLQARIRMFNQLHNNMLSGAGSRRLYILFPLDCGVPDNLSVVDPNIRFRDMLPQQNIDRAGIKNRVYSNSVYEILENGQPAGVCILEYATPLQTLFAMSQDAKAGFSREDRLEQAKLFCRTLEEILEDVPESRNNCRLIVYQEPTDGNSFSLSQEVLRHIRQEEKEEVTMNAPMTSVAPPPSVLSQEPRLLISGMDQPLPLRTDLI", "test": "Binding affinity to recombinant 6-His tagged mouse STING C-terminal domain (144 to 378 residues) expressed in Escherichia coli BL21 (DE3) cells assessed as thermal stabilization by measuring change in melting temperature at 50 uM incubated at 25 to 95 degreeC for 45 mins by SYPRO orange dye based fluorescence analysis"}, "[7]": {"molecular_target": "T1, Stimulator of interferon genes protein", "test": "Activation of cGAS-STING pathway in wildtype human THP1-Blue ISG cells assessed as induction of STAT3 phosphorylation at Tyr705 residue at 15 uM incubated upto 6 hrs by Western blot analysis", "format": "cell-based", "details": "filed as activator"}, "[8]": {"molecular_target": "T1, Stimulator of interferon genes protein", "test": "Activation of cGAS-STING pathway in human THP1-Dual KO-cGAS cells assessed as induction of STING phosphorylation at Ser366 residue at 15 uM incubated for 1 hrs by Western blot analysis", "format": "cell-based", "details": "filed as activator"}, "[9]": {"molecular_target": "T1, Stimulator of interferon genes protein", "test": "Activation of cGAS-STING pathway in wildtype human THP1-Blue ISG cells assessed as induction of STING phosphorylation at Ser366 residue at 15 uM incubated upto 6 hrs by Western blot analysis", "format": "cell-based", "details": "filed as activator"}, "[10]": {"molecular_target": "T1, Stimulator of interferon genes protein", "test": "Activation of cGAS-STING pathway in wildtype human THP1-Blue ISG cells assessed as induction of IRF3 phosphorylation at Ser396 residue at 15 uM incubated upto 6 hrs by Western blot analysis", "format": "cell-based", "details": "filed as activator"}, "[11]": {"molecular_target": "T1, Stimulator of interferon genes protein", "test": "Agonist activity at STING in PMA-differentiated wildtype human THP1-Blue ISG cells harboring IRF-inducible SEAP reporter construct incubated for 24 hrs by QUANTI-Blue assay", "format": "cell-based"}, "[12]": {"molecular_target": "T3, Stimulator of interferon genes protein (Mus musculus, UniProt Q3TBT3)", "T3 sequence (Q3TBT3 whole entry)": "T2 sequence (whole entry)", "test": "Competitive inhibition of 5-FAM labelled diABZI binding to recombinant 6-his tagged mouse STING C-terminal domain (144 to 378 residues) expressed in Escherichia coli BL21 (DE3) cells incubated for 10 mins by fluorescence polarization assay"}, "[13]": {"molecular_target": "T1, Stimulator of interferon genes protein", "test": "Activation of cGAS-STING pathway in human THP-1 cells assessed as stimulation of CXCL10 gene expression at 15 uM by RT-qPCR analysis", "format": "cell-based", "details": "filed as activator, time <= 8.0 hrs"}, "Homo sapiens [14]": {"species": "Homo sapiens", "test": "Binding affinity to recombinant human STING R293Q variant C-terminal domain (139 to 378 residues) expressed in Escherichia coli BL21 (DE3) cells assessed as thermal stabilization by measuring change in melting temperature at 50 uM incubated at 25 to 95 degreeC for 45 mins by SYPRO orange dye based fluorescence analysis"}, "[15]": {"test": "Competitive inhibition of 5-FAM labelled diABZI binding to recombinant human STING R293Q variant C-terminal domain (139 to 378 residues) expressed in Escherichia coli BL21 (DE3) cells incubated for 10 mins by fluorescence polarization assay"}, "[16]": {"molecular_target": "T1, Stimulator of interferon genes protein", "test": "Activation of cGAS-STING pathway in human THP1-Dual KO-STING cells assessed as induction of TBK1 phosphorylation at Ser172 residue at 15 uM incubated for 1 hrs by Western blot analysis", "format": "cell-based"}, "[17]": {"molecular_target": "T1, Stimulator of interferon genes protein", "test": "Activation of cGAS-STING pathway in wildtype human THP1-Blue ISG cells assessed as induction of p65 phosphorylation at Ser536 residue at 15 uM incubated upto 6 hrs by Western blot analysis", "format": "cell-based", "details": "filed as activator"}, "Homo sapiens [18]": {"species": "Homo sapiens", "test": "Binding affinity to recombinant human STING R232H variant C-terminal domain (139 to 378 residues) expressed in Escherichia coli BL21 (DE3) cells assessed as thermal stabilization by measuring change in melting temperature at 50 uM incubated at 25 to 95 degreeC for 45 mins by SYPRO orange dye based fluorescence analysis"}, "[19]": {"molecular_target": "T1, Stimulator of interferon genes protein", "test": "Activation of cGAS-STING pathway in human THP1-Dual KO-cGAS cells assessed as induction of STAT3 phosphorylation at Tyr705 residue at 15 uM incubated for 1 hrs by Western blot analysis", "format": "cell-based", "details": "filed as activator"}, "[20]": {"molecular_target": "T1, Stimulator of interferon genes protein", "test": "Activation of cGAS-STING pathway in human THP1-Dual KO-cGAS cells assessed as induction of TBK1 phosphorylation at Ser172 residue at 15 uM incubated for 1 hrs by Western blot analysis", "format": "cell-based", "details": "filed as activator"}, "[21]": {"test": "Competitive inhibition of 5-FAM labelled diABZI binding to recombinant human STING G230A and R293Q variant C-terminal domain (139 to 378 residues) expressed in Escherichia coli BL21 (DE3) cells incubated for 10 mins by fluorescence polarization assay"}, "[22]": {"molecular_target": "T1, Stimulator of interferon genes protein", "test": "Competitive inhibition of 5-FAM labelled diABZI binding to recombinant wildtype human STING R232 variant C-terminal domain (139 to 378 residues) expressed in Escherichia coli BL21 (DE3) cells incubated for 10 mins by fluorescence polarization assay"}, "[23]": {"molecular_target": "T1, Stimulator of interferon genes protein", "test": "Activation of cGAS-STING pathway in human THP-1 cells assessed as stimulation of IL6 gene expression at 15 uM by RT-qPCR analysis", "format": "cell-based", "details": "filed as activator, time <= 8.0 hrs"}, "[24]": {"tested_on": "Stimulator of interferon genes protein (Homo sapiens), Q86WV6 [UNDEFINED MUTATION]", "sequence (Q86WV6 whole entry, looked up, stated change not applied, the tested form may be a part)": "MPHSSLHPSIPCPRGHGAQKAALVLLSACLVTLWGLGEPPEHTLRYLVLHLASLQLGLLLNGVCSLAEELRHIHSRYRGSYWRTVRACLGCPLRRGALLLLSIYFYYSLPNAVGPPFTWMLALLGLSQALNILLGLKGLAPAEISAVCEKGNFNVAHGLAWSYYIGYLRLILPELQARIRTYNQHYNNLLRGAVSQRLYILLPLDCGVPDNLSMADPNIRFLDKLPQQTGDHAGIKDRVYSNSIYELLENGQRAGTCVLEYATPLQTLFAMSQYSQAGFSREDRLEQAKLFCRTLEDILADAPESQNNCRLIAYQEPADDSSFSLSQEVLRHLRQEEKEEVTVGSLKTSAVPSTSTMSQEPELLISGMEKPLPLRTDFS", "test": "Binding affinity to recombinant wildtype human STING R232 variant C-terminal domain (139 to 378 residues) expressed in Escherichia coli BL21 (DE3) cells assessed as thermal stabilization by measuring change in melting temperature at 50 uM incubated at 25 to 95 degreeC for 45 mins by SYPRO orange dye based fluorescence analysis"}, "[25]": {"test": "Competitive inhibition of 5-FAM labelled diABZI binding to recombinant human STING R232H variant C-terminal domain (139 to 378 residues) expressed in Escherichia coli BL21 (DE3) cells incubated for 10 mins by fluorescence polarization assay"}, "[26]": {"molecular_target": "T1, Stimulator of interferon genes protein", "test": "Activation of cGAS-STING pathway in human THP-1 cells assessed as stimulation of IFNB1 gene expression at 15 uM by RT-qPCR analysis", "format": "cell-based", "details": "filed as activator, time <= 8.0 hrs"}, "[27]": {"molecular_target": "T1, Stimulator of interferon genes protein", "test": "Activation of cGAS-STING pathway in human THP1-Dual KO-STING cells assessed as induction of STING phosphorylation at Ser366 residue at 15 uM incubated for 1 hrs by Western blot analysis", "format": "cell-based"}, "[28]": {"molecular_target": "T1, Stimulator of interferon genes protein", "test": "Activation of cGAS-STING pathway in human THP1-Dual KO-cGAS cells assessed as induction of p65 phosphorylation at Ser536 residue at 15 uM incubated for 1 hrs by Western blot analysis", "format": "cell-based", "details": "filed as activator"}, "Homo sapiens [29]": {"species": "Homo sapiens", "test": "Binding affinity to recombinant human STING G230A and R293Q variant C-terminal domain (139 to 378 residues) expressed in Escherichia coli BL21 (DE3) cells assessed as thermal stabilization by measuring change in melting temperature at 50 uM incubated at 25 to 95 degreeC for 45 mins by SYPRO orange dye based fluorescence analysis"}}, "note": "Activity calls are given as the source filed them. No cut-off for these calls is given here."}
{"smiles": "C#Cc1cc(NC(=O)c2ccc(-n3ccc(C#N)c3)nn2)c(C(=O)O)cc1F", "values": [{"measurement": "Activity", "setting": "[1]", "result": "Active"}, {"measurement": "Activity", "setting": "[2]", "result": "inactive"}, {"measurement": "Activity", "setting": "[3]", "result": "inactive"}, {"measurement": "Activity", "setting": "[4]", "result": "inactive"}, {"measurement": "Activity", "setting": "[5]", "result": "Active"}, {"measurement": "ΔTm", "setting": "[6]", "result": 7.5, "unit": "°C"}, {"measurement": "Activity", "setting": "[7]", "result": "Active"}, {"measurement": "Activity", "setting": "[8]", "result": "Active"}, {"measurement": "Activity", "setting": "[9]", "result": "Active"}, {"measurement": "Activity", "setting": "[10]", "result": "Active"}, {"measurement": "EC50", "setting": "[11]", "result": 1.19, "unit": "µM"}, {"measurement": "IC50", "setting": "[12]", "result": 4.72, "unit": "µM"}, {"measurement": "Activity", "setting": "[13]", "result": "Active"}, {"measurement": "ΔTm", "setting": "Homo sapiens [14]", "result": 7.5, "unit": "°C"}, {"measurement": "IC50", "setting": "[15]", "result": 3.74, "unit": "µM"}, {"measurement": "Activity", "setting": "[16]", "result": "inactive"}, {"measurement": "Activity", "setting": "[17]", "result": "Active"}, {"measurement": "ΔTm", "setting": "Homo sapiens [18]", "result": 8, "unit": "°C"}, {"measurement": "Activity", "setting": "[19]", "result": "Active"}, {"measurement": "Activity", "setting": "[20]", "result": "Active"}, {"measurement": "IC50", "setting": "[21]", "result": 0.91, "unit": "µM"}, {"measurement": "IC50", "setting": "[22]", "result": 3.31, "unit": "µM"}, {"measurement": "Activity", "setting": "[23]", "result": "Active"}, {"measurement": "ΔTm", "setting": "[24]", "result": 6, "unit": "°C"}, {"measurement": "IC50", "setting": "[25]", "result": 3.55, "unit": "µM"}, {"measurement": "Activity", "setting": "[26]", "result": "Active"}, {"measurement": "Activity", "setting": "[27]", "result": "inactive"}, {"measurement": "Activity", "setting": "[28]", "result": "Active"}, {"measurement": "ΔTm", "setting": "Homo sapiens [29]", "result": 13, "unit": "°C"}]}
